According to US20060122180A1, “Therapeutic treatment” (priority 2002, published 2006):
Bridge positions count the residues as written; N and C are the ends. Ends that are not written are not given here.

What was measured:
Assay type in all cases: cell-based, mouse
Conditions in all cases: MC-3T3.E1/J1 cells, serum starved, stimulated for 3 minutes
[1] = system: phospho-p44/42 mitogen activated proteine kinase (MAPK) (Thr 202/204); test: Western blot of p44/42 MAPK phosphorylation in growth-factor-stimulated MC3T3.E1/J1 osteoblastic cells
Source text: (§1) The MC3T3. E1/J1 cell line was isolated from a parental cell line, MC3T3-E1 (available from Invitrogen), which had in turn been derived from newborn C57BL/6 mouse calvaria. The MC3T3 E1/J1 line is described as an osteoblastic line. Care is taken in culture not to use a medium with a pH greater than 7.5 or to allow the cells to become confluent, as this causes a de-differentiation to form a fibroblastic phenotype. This reversion to a fibroblastic phenotype is a common feature of osteoblastic cell cultures.
(§2) MC3T3.E1/J1 cells were routinely maintained in complete media (α-modified minimum essential medium eagle+10% foetal calf serum+1% glutamine+10% M1). MC3T3.E1/J1 cells were plated at 1.7×10^4 cells/well (24 well plates) in complete media and incubated at 37° C. in 5% CO2 for 48 hours. Cells were washed twice in phosphate buffered saline and re-incubated for approximately 17 hours in serum starvation media (α-modified minimum essential medium eagle+1% glutamine).
(§3) Cells were then stimulated with growth factor (ET-1 or EGF) for 3 minutes. All media was then removed and the cells lysed in 2× laemli buffer. Following electrophoresis and western blotting, membranes were probed with phospho-p44/42 mitogen activated proteine kinase (MAPK)^(Thr 202/204), phosphor-AKT^(Ser 473) and phospho-EGF Receptor^(tyr 1173) specific antibodies.

[2] = system: phospho-EGF Receptor (tyr 1173); test: Western blot of EGF receptor phosphorylation in growth-factor-stimulated MC3T3.E1/J1 osteoblastic cells
Source text: as §1, §2, §3

[3] = system: phosphor-AKT (Ser 473); test: Western blot of AKT phosphorylation in growth-factor-stimulated MC3T3.E1/J1 osteoblastic cells
Source text: as §1, §2, §3

Row | Substance | p44/42 MAPK phosphorylation [1] | EGFR tyr1173 phosphorylation [2] | AKT phosphorylation [3]
1 | endothelin-1 (CSCSSLMDKECVYFCHLDIIW; disulfide 1-15, 3-11; ends not checked; UniProt P05305 53-73, looked up) [ET-1, endogenous 21 amino acid peptide, endothelin isoform, used as growth factor stimulus] | stimulates |  | 
2 | epidermal growth factor [EGF, growth factor used as stimulus] | stimulates | stimulates | stimulates
